From US5422353A, “Tetrahydropyridine derivatives” (Boehringer Ingelheim KG, priority 1988, dated 1995) come the findings set out here.

For one test, the target named is muscarinic receptors. The experiment in a line: Receptor binding studies (radioligand L(+)cis-[2-methyl-3H]-N,N,N-trimethyl-1,3-dioxolan-4-methanammonium-iodide, NET-647). Particulars: cerebral cortex (rat); radioligand NET-647; tested as maleate (MA) or oxalate (OX) salt. Here is the method:
The compounds of formulae I and Ia have valuable pharmacological properties. Thus, in bonding studies, they show affinities with muscarinic receptors and muscarbin-agonistic GTP-shifts (GTP=guanosintriphosphate). (Birdshall, N. I. M., E. C. Hulme and J. M. Stockton 1984 in T.I.P.S. Supplement, Proc. Internat. Symposium on Subtypes of Muscarinic Receptors, Ed. Hirschowitz, Hammer, Giacchetti, Keirns, Levine; Elsevier p. 4-8).
The receptor binding studies were carried out according to: A. Closse, H. Bittiger, D. Langenegger and A. Wanner, Naunyn-Schmiedeberg's Arch. Pharmacol. 335, 372-377 (1987).
Receptor binding studies
L(+)cis-[2-methyl-^3 H]-N,N,N-trimethyl-
1,3-dioxolan-4-methanammonium-iodide
NET-647, Messrs. NEN (New England
Organ: Cerebral cortex (rat)

The subject of a further test is conscious rabbit. The experiment in a line: arousal reaction in the EEG (electroencephalograph) of a conscious rabbit. Format: in vivo.

Each structure is given as a SMILES string. pKi: −log10 of the molar value.

Take `CCOCC1=CCN(C)CC1` [Example 2, 4-Ethoxymethyl-1-methyl-1,2,3,6-tetrahydropyridine]: the pKi on muscarinic receptors is 6.68. In addition, in the test on conscious rabbit (1 mg/kg and 3 mg/kg i.v.), the “arousal reaction typical of cholinomimetics in the EEG” value is “exhibit an arousal reaction typical of cholinomimetics”.

With `CCSCC1=CCN(C)CC1` [Example 4, 4-[(Ethylthio)methyl]-1-methyl-1,2,3,6-tetrahydropyridine], the pKi at muscarinic receptors was 8.08.

Consider `CCCOCC1=CCN(C)CC1` [Example 9, 1-Methyl-4-propoxymethyl-1,2,3,6-tetrahydropyridine], for which the pKi at muscarinic receptors is 6.85.

Regarding `CSCC1=CCN(C)CC1` [Example 13, 1-Methyl-4-[(methylthio)methyl]-1,2,3,6-tetrahydropyridine], the pKi at muscarinic receptors was 7.82. In addition, the “arousal reaction typical of cholinomimetics in the EEG” value in the test on conscious rabbit (0.1 mg/kg and 0.3 mg/kg i.v.) is “exhibit an arousal reaction typical of cholinomimetics”.

As for `COCCC1=CCN(C)CC1` [OX, 4-(methoxyethyl)-1-methyl-1,2,3,6-tetrahydropyridine], on muscarinic receptors, the negative-log Ki (pKi) is 5.41.

What is called pKi is the Ki on a negative log10 scale, so that one unit is a factor of ten.
